# Results taken from US8865911B2, “Compounds and their use as BACE inhibitors” (Astrazeneca AB, priority 2010, dated 2014).
# pIC50: −log10 of the molar value.
# Target: human β-Secretase (Homo sapiens (Human), UniProt P56817)
# Assay: TR-FRET assay
# Format: biochemical
# Details: sBACE-Fc, substrate (Europium)CEVNLDAEFK(Qsy7) 100 nM, pH4.5, 15 minutes at r.t.
# Method: The β-secretase enzyme used in the TR-FRET is prepared as follows: The cDNA for the soluble part of the human β-Secretase (AA 1-AA 460) was cloned using the ASP2-Fc10-1-IRES-GFP-neoK mammalian expression vector. The gene was fused to the Fc domain of IgG1 (affinity tag) and stably cloned into HEK 293 cells.
# The robotic systems Biomek FX and Velocity 11 were used for all liquid handling and the enzyme and substrate solutions were kept on ice until they were placed in the robotic system. Enzyme (9 μl) was added to the plate then 1 μl of compound in dimethylsulphoxide was added, mixed and pre-incubated for 10 minutes. Substrate (10 μl) was then added, mixed and the reaction proceeded for 15 minutes at r.t. The reaction was stopped with the addition of Stop solution (7 μl, NaAcetate, pH 9). […] The dimethylsulphoxide control, instead of test compound, defined the 100% activity level and 0% activity was defined by wells lacking enzyme (replaced with reaction buffer).
# Sequence of human β-Secretase (P56817 22-460): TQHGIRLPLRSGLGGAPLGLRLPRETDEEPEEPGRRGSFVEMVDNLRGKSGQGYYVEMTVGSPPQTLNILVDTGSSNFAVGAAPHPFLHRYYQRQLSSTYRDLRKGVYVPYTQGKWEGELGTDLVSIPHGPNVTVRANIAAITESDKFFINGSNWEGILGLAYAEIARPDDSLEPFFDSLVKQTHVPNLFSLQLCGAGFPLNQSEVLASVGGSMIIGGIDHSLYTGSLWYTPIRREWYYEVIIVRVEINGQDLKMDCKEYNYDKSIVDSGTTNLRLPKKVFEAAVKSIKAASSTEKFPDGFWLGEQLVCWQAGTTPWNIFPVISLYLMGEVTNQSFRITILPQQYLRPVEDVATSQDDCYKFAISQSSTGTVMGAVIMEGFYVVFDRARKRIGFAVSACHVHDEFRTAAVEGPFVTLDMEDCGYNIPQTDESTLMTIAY
Structure (SMILES),pIC50,IC50 in TR-FRET assay
"CC#Cc1cncc(-c2ccc3c(c2)C2(N=C(C)C(N)=N2)[C@]2(CC[C@H](OC)CC2)C3)c1C (stereo partly drawn) [Example 63, (1r,4r)-4-Methoxy-5″-methyl-6′-[4-methyl-5-(prop-1-yn-1-yl)pyridin-3-yl]-3′H-dispiro[cyclohexane-1,2′-indene-1′,2″-imidazol]-4″-amine]",7.05,–
"CC1=NC2(CC(C3CCCOC3)Oc3ccc(Br)cc32)N=C1N (single isomer, unassigned) [Example 47 Isomer 5, 6-Bromo-5′-methyl-2-(tetrahydro-2H-pyran-3-yl)spiro[chromane-4,2′-imidazole]-4′-amine]",4.70,–
"CC1=NC2(CC(C3CCCOC3)Oc3ccc(Br)cc32)N=C1N (single isomer, unassigned) [Example 47 Isomer 2, 6-Bromo-5′-methyl-2-(tetrahydro-2H-pyran-3-yl)spiro[chromane-4,2′-imidazole]-4′-amine]",5.99,–
"CC1=NC2(N=C1N)c1cc(NC(=O)c3ccc(Cl)cn3)ccc1CC21CCC(F)(F)CC1 (stereo not drawn) [Example 28d, N-(4″-Amino-4,4-difluoro-5″-methyl-3′H-dispiro[cyclohexane-1,2′-indene-1′,2″-imidazol]-6′-yl)-5-chloropyridine-2-carboxamide]",6.39,–
"CC1=NC2(N=C1N)c1cc(Br)ccc1CC21CCC(C(F)F)CC1 (stereo not drawn) [Example 128, 6′-Bromo-4-(difluoromethyl)-5″-methyl-3′H-dispiro[cyclohexane-1,2′-indene-1′,2″-imidazol]-4″-amine]",5.58,–
"CCO[C@H]1CC[C@]2(CC1)Cc1ccc(-c3cncc(Cl)c3)cc1C21N=C(C)C(N)=N1 (stereo partly drawn) [Example 133, (1r,4r)-6′-(5-chloropyridin-3-yl)-4-ethoxy-5″-methyl-3′H-dispiro[cyclohexane-1,2′-indene-1′,2″-imidazol]-4″-amine]",7.60,–
"CC1=NC2(CC(C3CCOC(C)(C)C3)Oc3ccc(-c4cccc(Cl)c4)cc32)N=C1N (racemic) [Example 50 Isomeric mixture 1, 6-(3-Chlorophenyl)-2-(2,2-dimethyltetrahydro-2H-pyran-4-yl)-5′-methylspiro[chroman-4,2′-imidazol]-4′-amine]",7.00,–
"CC1=NC2(CC(C3CCOC(C)(C)C3)Oc3ccc(Br)cc32)N=C1N (mixture of isomers) [Example 49 Isomeric mixture 1, 6-Bromo-2-(2,2-dimethyltetrahydro-2H-pyran-4-yl)-5′-methyl-spiro[chromane-4,2′-imidazole]-4′-amine]",8.00,–
"CC1=NC2(N=C1N)c1cc(-c3cc(F)cc(F)c3)ccc1C[C@]21CC[C@@H](OC(F)F)CC1 (stereo partly drawn) [Example 109, (1r,4r)-4-(Difluoromethoxy)-6′-(3,5-difluorophenyl)-5″-methyl-3′H-dispiro[cyclohexane-1,2′-indene-1′,2″-imidazol]-4″-amine]",7.68,–
"CC1=NC2(CC(C3CCOC(C)(C)C3)Oc3ccc(Br)cc32)N=C1N (mixture of isomers) [Example 49 Isomeric mixture 2, 6-Bromo-2-(2,2-dimethyltetrahydro-2H-pyran-4-yl)-5′-methyl-spiro[chromane-4,2′-imidazole]-4′-amine]",–,inactive
"CC1=NC2(CC(C3CCCOC3)Oc3ccc(Br)cc32)N=C1N (single isomer, unassigned) [Example 47 Isomer 6, 6-Bromo-5′-methyl-2-(tetrahydro-2H-pyran-3-yl)spiro[chromane-4,2′-imidazole]-4′-amine]",5.86,–
"CC1=NC2(CC(C3CCCOC3)Oc3ccc(Br)cc32)N=C1N (single isomer, unassigned) [Example 47 Isomer 3, 6-Bromo-5′-methyl-2-(tetrahydro-2H-pyran-3-yl)spiro[chromane-4,2′-imidazole]-4′-amine]",–,inactive
"COc1ccc(OC)c(-c2ccc3c(c2)C2(CCO3)N=C(C)C(N)=N2)c1 (stereo not drawn) [Example 5, 6-(2,5-Dimethoxyphenyl)-5′-methylspiro[chroman-4,2′-imidazol]-4′-amine]",5.44,–
"CC1=NC2(CCOc3ccc(-c4cc(Cl)cc(Cl)c4)cc32)N=C1N (stereo not drawn) [Example 1, 6-(3,5-Dichlorophenyl)-5′-methylspiro[chroman-4,2′-imidazol]-4′-amine]",6.80,–
"CC1=NC2(N=C1N)c1cc(-c3cccc(Cl)c3)ccc1CC21CCOCC1 (stereo not drawn) [Example 26a, 6′-(3-Chlorophenyl)-5-methyl-2″,3″,5″,6″-tetrahydro-3′H-dispiro[imidazole-2,1′-indene-2′,4″-pyran]-4-amine]",7.00,–
CO[C@H]1CC[C@]2(CC1)Cc1ccc(-c3cccc(F)c3F)cc1[C@@]21N=C(C)C(N)=N1 [Example 101],7.70,–
"COc1ccc(C)cc1-c1ccc2c(c1)C1(CCO2)N=C(C)C(N)=N1 (stereo not drawn) [Example 10, 6-(2-Methoxy-5-methylphenyl)-5′-methylspiro[chroman-4,2′-imidazol]-4′-amine]",5.16,–

Structure (SMILES),pIC50,IC50 in TR-FRET assay
"CC1=NC2(CCOc3ccc(NC(=O)c4ncc(Cl)cc4Cl)cc32)N=C1N (stereo not drawn) [Example 13i, N-(4′-Amino-5′-methylspiro[chroman-4,2′-imidazole]-6-yl)-3,5-dichloropicolinamide]",6.25,–
"CC1=NC2(CCOc3ccc(NC(=O)c4ccc(Cl)cn4)cc32)N=C1N (stereo not drawn) [Example 13a, N-(4′-Amino-5′-methylspiro[chroman-4,2′-imidazole]-6-yl)-5-chloropicolinamide]",5.89,–
"CC1=NC2(CCOc3ccc(NC(=O)c4ccc(C)s4)cc32)N=C1N (stereo not drawn) [Example 13f, N-(4′-Amino-5′-methylspiro[chroman-4,2′-imidazole]-6-yl)-5-methylthiophene-2-carboxamide]",5.19,–
"CC1=NC2(N=C1N)c1cc(Br)ccc1CC21CCC1 (stereo not drawn) [Example 54, 6′-Bromo-5″-methyl-3′H-dispiro[cyclobutane-1,2′-indene-1′,2″-imidazol]-4″-amine]",5.18,–
"CC1=N[C@]2(N=C1N)c1cc(-c3cc(F)cc(C#N)c3)ccc1C[C@]21CC[C@@H](OC(F)F)CC1 (racemic) [Example 105, 3-[(1r,4r)-4″-Amino-4-(difluoromethoxy)-5″-methyl-3′H-dispiro[cyclohexane-1,2′-indene-1′,2″-imidazol]-6′-yl]-5-fluorobenzonitrile]",7.66,–
"COCc1cc(F)cc(-c2ccc3c(c2)C2(N=C(C)C(N)=N2)[C@]2(CC[C@H](OC)CC2)C3)c1 (stereo partly drawn) [Example 81, (1r,4r)-6′-[3-Fluoro-5-(methoxymethyl)phenyl]-4-methoxy-5″-methyl-3′H-dispiro[cyclohexane-1,2′-indene-1′,2″-imidazol]-4″-amine]",7.64,–
"CC#CCOc1ccc(C(=O)Nc2ccc3c(c2)C2(CCO3)N=C(C)C(N)=N2)nc1 (stereo not drawn) [Example 13d, N-(4′-amino-5′-methylspiro[chroman-4,2′-imidazole]-6-yl)-5-(but-2-ynyloxy)picolinamide]",6.95,–
"CC1=NC2(N=C1N)c1cc(C#CC(C)(C)C)ccc1CC21CCC1 (stereo not drawn) [Example 59, 6′-(3,3-Dimethylbut-1-yn-1-yl)-5″-methyl-3′H-dispiro[cyclobutane-1,2′-indene-1′,2″-imidazol]-4″-amine]",5.58,–
"CC#Cc1cncc(-c2ccc3c(c2)C2(N=C(C)C(N)=N2)[C@]2(CC[C@](C)(OC)CC2)C3)c1 (stereo partly drawn) [Example 111, (1r,4r)-4-Methoxy-4,5″-dimethyl-6′-[5-(prop-1-yn-1-yl)pyridin-3-yl]-3′H-dispiro[cyclohexane-1,2′-indene-1′,2″-imidazol]-4″-amine]",7.29,–
"CC1=NC2(CC(C3CCCOC3)Oc3ccc(Br)cc32)N=C1N (single isomer, unassigned) [Example 47 Isomer 8, 6-Bromo-5′-methyl-2-(tetrahydro-2H-pyran-3-yl)spiro[chromane-4,2′-imidazole]-4′-amine]",5.09,–
"CC1=NC2(CCOc3ccc(-c4cc(C)ccc4F)cc32)N=C1N (stereo not drawn) [Example 11, 6-(2-Fluoro-5-methylphenyl)-5′-methylspiro[chroman-4,2′-imidazol]-4′-amine]",5.70,–
"CC1=NC2(CC(C3CCCOC3)Oc3ccc(Br)cc32)N=C1N (single isomer, unassigned) [Example 47 Isomer 1, 6-Bromo-5′-methyl-2-(tetrahydro-2H-pyran-3-yl)spiro[chromane-4,2′-imidazole]-4′-amine]",–,inactive
"CCC1=NC2(N=C1N)c1cc(Br)ccc1C[C@]21CC[C@@H](OC)CC1 (stereo partly drawn) [Example 64, (1r,4r)-6′-Bromo-5″-ethyl-4-methoxy-3′H-dispiro[cyclohexane-1,2′-indene-1′,2″-imidazol]-4″-amine]",6.40,–
"CC1=NC2(CC(C3CCCOC3)Oc3ccc(Br)cc32)N=C1N (single isomer, unassigned) [Example 47 Isomer 4, 6-Bromo-5′-methyl-2-(tetrahydro-2H-pyran-3-yl)spiro[chromane-4,2′-imidazole]-4′-amine]",4.19,–
"CC1=NC2(CC(C3CCCOC3)Oc3ccc(Br)cc32)N=C1N (single isomer, unassigned) [Example 47 Isomer 7, 6-Bromo-5′-methyl-2-(tetrahydro-2H-pyran-3-yl)spiro[chromane-4,2′-imidazole]-4′-amine]",–,inactive
"CC1=NC2(N=C1N)c1cc(-c3cc(F)cc(C#N)c3)ccc1CC21CCC(=O)CC1 (stereo not drawn) [Example 115, 3-(4″-Amino-5″-methyl-4-oxodispiro[cyclohexane-1,2′-[1H]indene-1′(3′H),2″-[2H]imidazol]-6′-yl)-5-fluorobenzonitrile]",6.20,–
